Data taken from PMC8850458, “The AUTOTAC chemical biology platform for targeted protein degradation via the autophagy-lysosome system” (Nature Communications, 2022).
Several values for one entry are separate records, joined by “and”; a condition that tells them apart may be missing. Equal values may be shown once.

Key:
mutant desminL385P = target: T1, mutant desminL385P (Homo sapiens, UniProt P17661, L385P); assay: WB degradation of mutant desmin in HeLa cells; type: cell-based; settings: exogenously expressed
T1 construct: expressed in transfected cells; host or cells: HeLa, transient
T1 sequence (P17661 whole entry L385P): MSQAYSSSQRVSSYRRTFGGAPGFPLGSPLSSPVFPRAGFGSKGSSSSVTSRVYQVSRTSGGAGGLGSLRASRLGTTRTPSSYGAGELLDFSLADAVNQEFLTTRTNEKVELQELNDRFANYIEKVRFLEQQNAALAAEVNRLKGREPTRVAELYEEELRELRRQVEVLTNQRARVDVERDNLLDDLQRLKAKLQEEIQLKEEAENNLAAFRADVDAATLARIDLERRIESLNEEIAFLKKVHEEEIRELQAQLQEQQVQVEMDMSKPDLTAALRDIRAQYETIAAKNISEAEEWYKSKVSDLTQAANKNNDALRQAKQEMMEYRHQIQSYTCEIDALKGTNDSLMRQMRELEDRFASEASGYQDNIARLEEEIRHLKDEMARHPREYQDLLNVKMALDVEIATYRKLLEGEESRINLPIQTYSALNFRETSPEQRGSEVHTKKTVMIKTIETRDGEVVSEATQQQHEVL
Method: Adherent cells were washed with phosphate-buffered saline (PBS) and cell pellets were lysed in SDS-based sample buffer (277.8 mM Tris-HCI, pH 6.8, 4.4% LDS, 44.4% (v/v) glycerol) containing beta-mercaptoethanol. Alternatively, cell pellets or protein supernatants were lysed in 5X Laemmli sample buffer. Whole-cell lysates were separated using SDS-PAGE, and transferred onto polyvinyllidene difluoride membranes at 100 V for 2 h at 4 °C. The membrane was incubated with a blocking solution consisting 4% skim milk in PBS solution for 30 min at room temperature and incubated with primary antibodies overnight, followed by incubation with host-specific HRP-conjugated secondary antibodies (1:10000 dilution). For signal detection, the membrane was developed with a mixture of ECL solution (Thermo Fisher Scientific) using X-ray films. Densitometry of developed bands was measured and analyzed with ImageJ (NIH, Bethesda).
Supplementary Fig. 5. AUTOTACs selectively target pathological aggregation-prone proteins for autophagic degradation. (a) WB in HEK293T cells treated with PBA-1105 (1 μM) and MG132 (1 μM, 24 h) at the indicated time points. (b) ICC of HeLa cells treated with the indicated compounds (1 μM, 24 h). Scale bar, 10 μm. (c) WB in HEK293T cells treated with PBA-1105 (500 nM, 24 h) and MG132 (1 μM, 24 h) under siRNA-mediated knockdown of p62 or ATG7 (20 nM, 48 h). (d) ICC in HeLa cells transiently expressing WIPI2-GFP and treated with Anle138b-F105 (1 μM, 24 h). Scale bar, 10 μm. (e) ICC in HeLa cells treated with […]
nM, 24 h). (g, h) WB in HeLa cells transiently expressing wild type or mutant (L385P) desmin-flag with LacZ-myc and treated with PBA-1105, PBA-1105b or Anle138b-F105 at the […]

tauP301L = tauP301L (Homo sapiens, UniProt P10636, P618L); assay: RIPA insoluble/soluble fractionation of brains of hTauP301L-BiFC mice, human tau; settings: for AVG (%) Insoluble hTau / AVG (%) Soluble hTau: control 100
Sequence of tauP301L (P10636 1-441 isoform P10636-8 P301L): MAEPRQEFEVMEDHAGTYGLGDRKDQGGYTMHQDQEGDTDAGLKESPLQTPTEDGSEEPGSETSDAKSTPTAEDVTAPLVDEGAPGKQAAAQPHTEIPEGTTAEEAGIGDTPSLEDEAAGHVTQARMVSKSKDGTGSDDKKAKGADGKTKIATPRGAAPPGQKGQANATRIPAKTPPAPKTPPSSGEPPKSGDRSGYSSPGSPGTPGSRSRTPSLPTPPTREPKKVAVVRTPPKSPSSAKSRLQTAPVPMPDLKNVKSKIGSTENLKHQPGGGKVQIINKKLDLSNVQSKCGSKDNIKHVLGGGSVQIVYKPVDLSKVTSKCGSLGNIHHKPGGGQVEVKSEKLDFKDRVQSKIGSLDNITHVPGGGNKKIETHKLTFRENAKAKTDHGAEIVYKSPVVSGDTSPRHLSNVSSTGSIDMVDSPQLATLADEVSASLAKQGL

Ub-conjugated aggregates = assay: WB autophagic flux of Ub-conjugated aggregates in HEK293T cells under proteasomal inhibition; type: cell-based
Method: Fig. 4 Targeted autophagic delivery and degradation of misfolded protein cargoes using AUTOTACs with aggregate-binding warhead. a A model illustrating the mode of action of aggregate-targeting AUTOTAC. b Chemical structures of PBA-1105, PBA-1106, Anle138b-F105 and PBA-1105b. c In vitro p62 oligomerization assay in HEK293T cells incubated with the indicated compounds in (b). d WB in HEK293T cells treated with MG132 (1 μM, 24 h), HCQ (10 μM, 24 h), PBA-1105, YTK-1105, and PBA (1 μM, 24 h). e Identical to (d), but with Anle-F105. f ICC of HeLa cells treated with HCQ (10 μM, 24 h), MG132 (2 μM, 18 h) or both in the presence of PBA-1106, YOK-1106 or PBA (1 μM, 24 h). Scale bar, 10 μm. g Quantification of (f) (n = 3, 50 cells). h ICC of HeLa cells treated with Anle138b-F105 (1 μM, 24 h). Scale bar, 10 μm. i Quantification of (h) (n = 3, 50 cells). When indicated, n = 3 biologically independent experiments each counting 50 cells. Data are presented as mean values ± SD where relevant. P-values (from a two-sided unpaired t test): ***P < 7.66E−05. Source data are provided with this paper.
Adherent cells were washed with phosphate-buffered saline (PBS) and cell pellets were lysed in SDS-based sample buffer (277.8 mM Tris-HCI, pH 6.8, 4.4% LDS, 44.4% (v/v) glycerol) containing beta-mercaptoethanol. […] Densitometry of developed bands was measured and analyzed with ImageJ (NIH, Bethesda).

[1] = target: T2, tau oligomers (htauP301L-BiFC bodies) and phosphorylated tau-BiFC (Homo sapiens, UniProt P10636, P618L); assay: Immunohistochemistry of BiFC and AT8 fluorescence in brains of hTauP301L-BiFC mice; type: in vivo; settings: for Sudan black B AVG CA1: control 32.0843; for Sudan black B AVG Cortex: control 98.7415; for AT8 AVG CA1 / AT8 AVG % CA1 / AT8 AVG % Cortex / AT8 AVG Cortex / AT8 CA1, per animal / AT8 Cortex, per animal: Fig. 6l; for AT8 AVG CA1: control 95.3926; for AT8 AVG Cortex: control 109.457; for AT8 CA1, per animal: control AVG 95.3926; for AT8 Cortex, per animal: control AVG 109.457
T2 construct: from tissue; host or cells: brain of 9-month-old hTauP301L-BiFC transgenic mice (C57BL/6)
T2 sequence (P10636 1-441 isoform P10636-8 P301L): as above

[2] = tested on: ERβ signaling (EGFR, p-ERK/ERK, p-Akt/Akt); assay: WB of ERβ downstream signaling in E2-stimulated LNCaP cells; type: cell-based; settings: levels of EGFR
Excerpt: To assess the therapeutic efficacy of autophagy-targeting degraders, we compared the downstream signaling of AR and ERβ in cells treated with either AUTOTACs or their cognate TBLs. Dihydrotestosterone (DHT) and estradiol (E2) are natural agonists that respectively bind AR and ERβ and induce their dimerization and nuclear translocation, resulting in transcriptional activation of downstream proteins[27],[28]. […] Next, we examined the potency of AUTOTACs in cancer cell growth and progression.
Adherent cells were washed with phosphate-buffered saline (PBS) and cell pellets were lysed in SDS-based sample buffer (277.8 mM Tris-HCI, pH 6.8, 4.4% LDS, 44.4% (v/v) glycerol) containing beta-mercaptoethanol. Alternatively, cell pellets or protein supernatants were lysed in 5X Laemmli sample buffer. Whole-cell lysates were separated using SDS-PAGE, and transferred onto polyvinyllidene difluoride membranes at 100 V for 2 h at 4 °C.

O=C(CCCc1ccccc1)NCCOCCOCCOCCNCc1ccc(OCc2ccccc2)c(OCc2ccccc2)c1 [PBA-1105]
degradation of mutant desminL385P (mutant desminL385P): induced the degradation
AVG (%) Insoluble hTau (tauP301L; 20 mg/kg): 43.8995%
AVG (%) Soluble hTau (tauP301L; 20 mg/kg): 87.1538%
AVG (%) Insoluble hTau (tauP301L; 50 mg/kg): 10.5836%
AVG (%) Soluble hTau (tauP301L; 50 mg/kg): 66.7118%
soluble tau species in brain (tauP301L; hTauP301L-BiFC mice, i.p. 20 or 50 mg/kg): little if any reduction
detergent-insoluble tauP301L in brain (tauP301L; hTauP301L-BiFC mice, i.p. 20 or 50 mg/kg, three times per week for one month): marked clearance
autophagic flux index of Ub-conjugated aggregates (Ub-conjugated aggregates; 1 μM 24 h, MG132 1 μM, HCQ 10 μM, control index 1): 2.2
duration of sustained autophagic flux of Ub-conjugated aggregates (Ub-conjugated aggregates; 1 μM, MG132): at least 48 h
Sudan black B AVG CA1 ([1]; Fig. 6k, 20 mg/kg): 24
Sudan black B AVG Cortex ([1]; Fig. 6k, 20 mg/kg): 61.9321
Sudan black B AVG CA1 ([1]; Fig. 6k, 50 mg/kg): 34.5914
Sudan black B AVG Cortex ([1]; Fig. 6k, 50 mg/kg): 38.2621
Sudan black B AVG % CA1 ([1]; Fig. 6k, 50 mg/kg, control 100): 107.814%
AT8 AVG CA1 ([1]; 20 mg/kg): 71.2628
AT8 AVG % CA1 ([1]; 20 mg/kg, control 100): 74.7047%
AT8 AVG % Cortex ([1]; 20 mg/kg, control 100): 77.6283%
AT8 AVG Cortex ([1]; 20 mg/kg): 84.9698
AT8 CA1, per animal ([1]; 20 mg/kg): 75.563 and 74.477 and 82.816 and 64.806 and 58.652
AT8 Cortex, per animal ([1]; 20 mg/kg): 72.808 and 80.823 and 112.523 and 115.092 and 43.603
AT8 AVG CA1 ([1]; 50 mg/kg): 65.5443
AT8 AVG % CA1 ([1]; 50 mg/kg, control 100): 68.7101%
AT8 AVG % Cortex ([1]; 50 mg/kg, control 100): 62.2901%
AT8 AVG Cortex ([1]; 50 mg/kg): 68.181
AT8 CA1, per animal ([1]; 50 mg/kg): 51.948 and 69.287 and 60.135 and 88.15 and 58.518 and 65.228
AT8 Cortex, per animal ([1]; 50 mg/kg): 68.316 and 68.839 and 67.094 and 66.047 and 57.905 and 80.885
soluble bodies of phosphorylated tau-BiFC (AT8 staining) ([1]; cortex and CA1 region): marked eradication
total tau oligomers (BiFC) in cortex and CA1 region of hippocampus ([1]; hTauP301L-BiFC mice, dosage-dependent): drastic reduction

O[C@H](CNCCOCCOCCOc1ccc(-c2c(-c3ccccc3)nn3c(C(F)(F)F)cc(C(F)(F)F)nc23)cc1)COc1ccc(OCc2ccccc2)c(OCCCc2ccccc2)c1 [PHTPP-1304]
inhibition of ERβ signaling relative to its TBL [2]: 10 folds
